As a reminder, the GI50 is the concentration at which growth is held to half of that of the control.

Here are results for eleven compounds from ChEMBL document CHEMBL1201862, “PubChem BioAssay data set” (2004).

The structures appear in SMILES notation.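 Values below derive from 48-hour exposures of cells grown in 96-well plates, with endpoints linearly interpolated between the two concentrations bracketing the appropriate inhibition level. GI50: concentration for 50% inhibition of growth.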 Calls of active or inactive are those of the source. Rule as the data show it: active = GI50 up to about 1.1 µM and inactive = higher.

Assay in all cases: DTP human tumour cell line panel, 48 h
Assay [1] deals with CAKI-1.
Assay [2] deals with K562.
Assay [3] has as its system PC-3.
The subject of assay [4] is IGROV-1.
The subject of assay [5] is SF-268.
Assay [6] has as its system TK-10.
The test system of assay [7] is HT-29.
For assay [8], the system named is SK-OV-3.
Assay [9] relates to MOLT-4.
The test system of assay [10] is M14.
Assay [11] deals with COLO 205.
Assay [12] relates to SK-MEL-2.
Assay [13] has as its system MDA-MB-435.
In assay [14] the test system is RPMI-8226.
The test system of assay [15] is SW-620.
In assay [16] the test system is SK-MEL-5.
The test system of assay [17] is U-251.
The subject of assay [18] is RXF 393.
The test system of assay [19] is KM12.

`CC(=O)Nc1ccc(Nc2cc(=O)n(C)c(=O)[nH]2)cc1`: the GI50 in assay [1], in [2], in assay [3], in assay [4], in assay [5] and in assay [6] was > 100 µM (inactive) each time. Moreover, the GI50 in [7], in assay [8], in [9], in assay [10], in assay [11] and in [12] was > 100 µM (inactive) throughout. Besides, the GI50 in assay [13], in [14], in assay [15], in [16], in assay [17] and in [18] was > 100 µM (inactive) in each case. In addition, the GI50 in [19] was > 100 µM (inactive).

Consider `CCOC(=O)/C(C#N)=C(/NNc1ccccc1)c1ccncc1C(=O)O`, for which the GI50 was > 73.1 µM (inactive) in assay [1]; 3.28 µM (inactive) in assay [2]; 7.08 µM (inactive) in assay [3]; > 100 µM (inactive) in assay [4]; > 100 µM (inactive) in assay [5]; > 100 µM (inactive) in assay [6]. The GI50 in assay [7] is > 63.5 µM (inactive); in [8], > 100 µM (inactive); in assay [9], 5.09 µM (inactive); in assay [10], 5.66 µM (inactive); in [11], 4.37 µM (inactive); in assay [12], > 75.2 µM (inactive). Further, the GI50 in [13] was 5.68 µM (inactive); in [14] it was > 56.8 µM (inactive); in assay [15], 3.27 µM (inactive); in assay [16], 9.82 µM (inactive); in assay [17], > 100 µM (inactive); in assay [18], > 100 µM (inactive). For the same compound, the GI50 in [19] was 3.4 µM (inactive).

Regarding `Oc1ccc2c(c1)OCC(O)(c1ccccc1O)C2` (centres undefined), the GI50 in [1], in assay [2], in assay [3], in assay [4], in assay [5] and in assay [6] was > 100 µM (inactive) each time. Also, the GI50 in assay [7], in assay [8], in [9], in [10], in assay [11] and in assay [12] was > 100 µM (inactive) each time. In addition, the GI50 in assay [13], in assay [14], in assay [15], in assay [16], in [17] and in assay [18] was > 100 µM (inactive) each time. In assay [19], the GI50 is > 100 µM (inactive).

Regarding `CCOC(=O)c1ccc(C(=O)/C(C(=O)OC(C)(C)C)=C2\CCCN2C)n1C`, the GI50 is > 100 µM (inactive) in assay [1]; 42.1 µM (inactive) in assay [2]; 73.1 µM (inactive) in [3]; > 100 µM (inactive) in assay [4]; > 100 µM (inactive) in assay [5]; > 100 µM (inactive) in assay [6]. Also, the GI50 is 45.2 µM (inactive) in assay [7]; 16.6 µM (inactive) in [8]; 33.8 µM (inactive) in assay [9]; 57.8 µM (inactive) in assay [10]; 96.8 µM (inactive) in assay [11]; > 100 µM (inactive) in assay [12]. The GI50 is 69.7 µM (inactive) in assay [13]; 69.7 µM (inactive) in [14]; > 100 µM (inactive) in assay [15]; 21.3 µM (inactive) in [16]; > 100 µM (inactive) in [17]; > 100 µM (inactive) in assay [18]. Besides, in assay [19], the GI50 is 55.3 µM (inactive).

With `CC(=O)c1ccc2c(c1)CC1(C2)Cc2ccccc2C1=O` (centres undefined), the GI50 in [1] was 33.1 µM (inactive); in [2], 36.1 µM (inactive); in assay [3] it was 35.2 µM (inactive); in assay [4], 79.1 µM (inactive); in assay [5] it was 74 µM (inactive); in assay [6], 19.4 µM (inactive). For the same compound, the GI50 was 14.6 µM (inactive) in assay [7]; > 100 µM (inactive) in assay [8]; 29.6 µM (inactive) in assay [9]; 31 µM (inactive) in assay [10]; 34 µM (inactive) in assay [11]; 71 µM (inactive) in assay [12]. The GI50 in [13] is 34.2 µM (inactive); in [14], 33.6 µM (inactive); in assay [15], > 100 µM (inactive); in [16] it was 21.8 µM (inactive); in [17] it was 67.5 µM (inactive); in assay [18], 42.5 µM (inactive). Moreover, the GI50 in assay [19] was 43.3 µM (inactive).

Regarding `CCCCCCCCCCOC1C(C(O)CNCCCN(C)C)OC2OC3(CCCCC3)OC21` (centres undefined), the GI50 in [1] was 1.75 µM (inactive); in assay [2], 1.63 µM (inactive); in [3] it was 2.26 µM (inactive); in [4], 1.93 µM (inactive); in assay [5] it was 2.17 µM (inactive); in [6], 3.21 µM (inactive). The GI50 was 1.62 µM (inactive) in assay [7]; 3.65 µM (inactive) in assay [8]; 1.77 µM (inactive) in [9]; 2 µM (inactive) in [10]; 2 µM (inactive) in assay [11]; 2.32 µM (inactive) in [12]. Also, the GI50 is 2.03 µM (inactive) in assay [13]; 1.94 µM (inactive) in [14]; 1.74 µM (inactive) in assay [15]; 1.89 µM (inactive) in assay [16]; 1.84 µM (inactive) in [17]; 1.93 µM (inactive) in [18]. Moreover, the GI50 in [19] was 1.51 µM (inactive).

As to `S=c1ssc2c3ssc(=S)c3n(Cc3ccccc3)c12`, the GI50 in assay [1] is > 100 µM (inactive); in [2], 40.9 µM (inactive); in [3], 74.6 µM (inactive); in assay [4] it was > 100 µM (inactive); in assay [5], 59.2 µM (inactive); in [6], > 100 µM (inactive). Besides, the GI50 in assay [7] was > 100 µM (inactive); in assay [8] it was > 100 µM (inactive); in assay [9], 4.9 µM (inactive); in [10] it was > 100 µM (inactive); in assay [11], > 100 µM (inactive); in [12], > 100 µM (inactive). The GI50 is > 100 µM (inactive) in assay [13]; > 100 µM (inactive) in [14]; > 100 µM (inactive) in [15]; > 100 µM (inactive) in [16]; 60.5 µM (inactive) in assay [17]; 0.494 µM (active) in assay [18]. Besides, the GI50 in [19] is > 100 µM (inactive).

On to `CNC(=O)N(C1=NCC(C)S1)c1ccc(C)c(C)c1` (centres undefined), for which the GI50 was 2.7 µM (inactive) in [1]; 0.923 µM (active) in [2]; 3.98 µM (inactive) in assay [3]; 8.89 µM (inactive) in [4]; 4.37 µM (inactive) in [5]; 9.04 µM (inactive) in assay [6]. The GI50 is 2.52 µM (inactive) in [7]; 4.28 µM (inactive) in assay [8]; 4.81 µM (inactive) in assay [9]; 1.13 µM (inactive) in assay [10]; 3.56 µM (inactive) in [11]; 1.87 µM (inactive) in assay [12]. The GI50 in [13] is 0.706 µM (active); in [14] it was 2.81 µM (inactive); in [15] it was 3.48 µM (inactive); in [16] it was 4.08 µM (inactive); in [17], 3.59 µM (inactive); in assay [18], 2.46 µM (inactive). Further, the GI50 in [19] is 3.15 µM (inactive).

`Nc1nc(Cl)cc(NCCC2(CO)CCC2)n1`: the GI50 in [1], in assay [2], in assay [3], in assay [4], in [5] and in assay [6] was > 100 µM (inactive) throughout. The GI50 in [7], in assay [8], in [9], in assay [10], in assay [11] and in [12] was > 100 µM (inactive) each time. Moreover, the GI50 in [13], in [14], in assay [15], in assay [16], in [17] and in assay [18] was > 100 µM (inactive) throughout. The GI50 in assay [19] is > 100 µM (inactive).

For the compound `O=C1C2CC[C@@H]3C(=O)C(Cl)(Cl)[C@@H]3CCC2C1(Cl)Cl` (some centres undefined), the GI50 in assay [1] is > 100 µM (inactive); in [2], 44.8 µM (inactive); in [3], > 100 µM (inactive); in [4] it was > 100 µM (inactive); in assay [5], > 100 µM (inactive); in assay [6], > 100 µM (inactive). In addition, the GI50 in [7] was > 100 µM (inactive); in assay [8], > 100 µM (inactive); in assay [9], 26.2 µM (inactive); in [10], > 100 µM (inactive); in assay [11], 71 µM (inactive); in [12] it was > 100 µM (inactive). The GI50 in assay [13] was > 100 µM (inactive); in assay [14], 32.4 µM (inactive); in [15], > 100 µM (inactive); in assay [16], > 100 µM (inactive); in [17] it was > 100 µM (inactive); in assay [18], > 87.7 µM (inactive). Also, the GI50 in assay [19] is > 100 µM (inactive).

As to `Nc1nn2c(C(Br)Br)cc(C(Br)Br)nc2c1[N+](=O)[O-]`, the GI50 is 0.5 µM (active) in assay [1]; 0.248 µM (active) in [2]; 1.36 µM (inactive) in [3]; 1.21 µM (inactive) in assay [4]; 1.88 µM (inactive) in assay [5]; 0.971 µM (active) in assay [6]. Also, the 50% growth inhibitory concentration (GI50) is 0.766 µM (active) in assay [7]; 3.43 µM (inactive) in assay [8]; 0.303 µM (active) in assay [9]; 0.627 µM (active) in assay [10]; 0.659 µM (active) in [11]; 1.89 µM (inactive) in [12]. For the same compound, the GI50 in [13] was 0.587 µM (active); in [14], 0.239 µM (active); in assay [15], 0.244 µM (active); in assay [16], 1.49 µM (inactive); in [17] it was 0.668 µM (active); in assay [18] it was 1.37 µM (inactive). Moreover, the GI50 in assay [19] is 1.32 µM (inactive).
